In patent US10385069B2, “Imidazo[2,1-B]thiazole and 5,6-dihydroimidazo[2,1-B]thiazole derivatives useful as S100-inhibitors” (Active Biotech AB, priority 2015, dated 2019):

biological target: T1, interaction between biotinylated human S100A9 and human RAGE-Fc (Homo sapiens, UniProt P06702); assay: AlphaScreen inhibition assay, biot-hS100A9:hRAGE-Fc; assay type: binding; settings: biot-hS100A9 pre-incubated with compound 1 h, assay buffer with CaCl2 and ZnCl2
T1 construct: made in house; host or cells: E. coli
T1 sequence (P06702 1-114): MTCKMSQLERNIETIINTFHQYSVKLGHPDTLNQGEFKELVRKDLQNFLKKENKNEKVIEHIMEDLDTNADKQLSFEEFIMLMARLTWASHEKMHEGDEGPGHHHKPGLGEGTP
From the text: Inhibition Assay, Biot-hS100A9:hRAGE-Fc
The AlphaScreen (Amplified Luminescent Proximity Homogeneous Assay) contains two types of beads, Alpha Donor beads and Acceptor beads (PerkinElmer). Upon laser excitation at 680 nm a photosensitizer in the Donor bead converts ambient oxygen to a more excited singlet state. The singlet oxygen molecule diffuses (maximum 200 nm) to react with a thioxene derivative in the Acceptor bead and generates a chemiluminescence reaction. Fluorophores in the Acceptor bead subsequently emit light at 520-620 nm which can be detected in the EnVision® Multilabel plate Reader (PerkinElmer). The beads are light sensitive and all work with the beads is performed under subdued light conditions or using green filters on light sources (Roscolux Chroma Green #389, Rosco).
In the AlphaScreen Inhibition Assay described here, protein A (Staphylococcus aureus) conjugated Acceptor beads are used together with streptavidin coated Donor beads (Perkin Elmer 6760617M). The Acceptor beads are pre-incubated with Fc-tagged recombinant human RAGE (rhRAGE-Fc) allowing binding of the rhRAGE-Fc to protein A on the beads. Biotinylated human S100A9 (biot-hS100A9) is pre-incubated with the low molecular test compounds. The pre-mixes are then added to the wells of a micro-plate and incubated allowing interaction between biot-hS100A9 and rhRAGE-Fc. Subsequent addition of streptavidin coated Donor beads causes binding of the streptavidin to the biotinylated hS100A9. After an additional incubation the signal is measured.
Without inhibitory compounds, the interaction of biot-hS100A9 to rhRAGE-Fc will bring the Acceptor and Donor beads in close proximity thus generating a high signal. With an inhibitor present the complex will not form resulting in a decreased signal. The assay is illustrated in FIG. 1.
Chemicals and Reagents. • AlphaScreen® General IgG (Protein A) Detection Kit, (PerkinElmer 6760617M) • HBS-P buffer (GE Healthcare, BR-1003-68) • HBS-N buffer (GE Healthcare, BR-1003-69) • CaCl2 in HBS-P • ZnCl2 in Milli-Q water • DMSO • Biotinylated hS100A9, (biotinylated via cystein by EZ-link Iodoacetyl-PEG2-Biotin reagent (Pierce no. 21334), in HBS-N • rhRAGE-Fc (R&D Systems, 1145-RG-50), in HBS-P
The AlphaScreen assay method is used for screening of the inhibitory effect of different compound samples at fixed concentrations or for IC50 determination by varying the compound concentrations. Samples of test compounds and references are prepared from solutions in DMSO. Relevant reference inhibitors and DMSO are used as controls for defined inhibition and non-inhibition, respectively in the assay. The percent inhibition in assay for test compounds and references are calculated by comparing their obtained assay signals with the signal values for the control with only DMSO (no compound).
Assay concentration of biotinylated hS100A9 and rhRAGE-Fc are batch dependent, and are determined and defined by separate cross-titration experiments using this AlphaScreen inhibition method to verify the optimal setup regarding signal strength and achievement of a defined inhibition with relevant reference compounds. The Final assay concentrations of Acceptor and Donor beads are 20 μg/mL.
Assay buffer is prepared by adding CaCl2 and ZnCl2 to HBS-P and is used freshly prepared in the experiment.
Biotin-hS100A9 solution for the experiment is prepared by dilution of appropriate amount of stock solution biot-hS100A9 in assay buffer (with CaCl2 and ZnCl2) and incubation in room temperature for 30 minutes.
rhRAGE-Fc solution for the experiment is prepared by dilution appropriate amount of rhRAGE-Fc stock in assay buffer.
Protein A Acceptor beads are diluted in assay buffer and are added to an equal volume of the prepared diluted rhRAGE-Fc solution. The beads are light sensitive. The vial is covered with aluminum foil and incubated at room temperature in the dark until biot-hS100A9+compound incubation is finished (see below). […]

First: C[C@@]1(C(=O)O)CN2C(=N1)Sc1c2ccc(F)c1Cl (single isomer, unassigned) [Example 279b]
Second: C[C@]1(C(=O)O)CN2C(=N1)Sc1c2ccc(F)c1Cl (single isomer, unassigned) [Example 279a]
The IC50 of the first is 2.3-fold higher: 390 nM for the first, 170 nM for the second.

`CC1(C)CCc2sc3nc(C(=O)NS(C)(=O)=O)cn3c2C1` [Example 50, N-Methanesulfonyl-11,11-dimethyl-7-thia-2,5-diazatricyclo[6.4.0.0^2,6]dodeca-1(8),3,5-triene-4-carboxamide] and `CC1(C)CCc2sc3nc(C(=O)O)cn3c2C1` [Example 38, 11,11-Dimethyl-7-thia-2,5-diazatricyclo[6.4.0.0^2,6]dodeca-1(8),3,5-triene-4-carboxylic acid] are within 1.5-fold of each other in IC50: 1040 nM for the first, 830 nM for the second.

`CC(C)(C)C1CCc2c(sc3nc(C(=O)NS(C)(=O)=O)cn23)C1` (stereo not drawn) [Example 47, 10-tert-Butyl-N-methanesulfonyl-7-thia-2,5-diazatricyclo[6.4.0.0^2,6]dodeca-1(8),3,5-triene-4-carboxamide] and `CC(C)(C)C1CCc2c(sc3nc(C(=O)O)cn23)C1` (stereo not drawn) [Example 35, 10-tert-Butyl-7-thia-2,5-diazatricyclo[6.4.0.0^2,6]dodeca-1(8),3,5-triene-4-carboxylic acid] are within 1.5-fold of each other in IC50: 340 nM for the first, 450 nM for the second.

`COc1ccccc1-c1c(C(=O)O)nc2sc3c(n12)CC(C)(C)CC3(C)C` [Example 247, 3-(2-Methoxyphenyl)-9,9,11,11-tetramethyl-7-thia-2,5-diazatricyclo[6.4.0.0^2,6]dodeca-1(8),3,5-triene-4-carboxylic acid] and `CC1(C)Cc2c(sc3nc(C(=O)O)c(C4CNC4)n23)C(C)(C)C1` [Example 235, 3-(Azetidin-3-yl)-9,9,11,11-tetramethyl-7-thia-2,5-diazatricyclo[6.4.0.0^2,6]dodeca-1(8),3,5-triene-4-carboxylic acid] are within 1.5-fold of each other in IC50: 1530 nM for the first, 1680 nM for the second.

First: O=C(O)c1nc2sc3cc(OC(F)(F)F)ccc3n2c1Br [Example 17, 3-Bromo-10-(trifluoromethoxy)-7-thia-2,5-diazatricyclo[6.4.0.0^2,6]dodeca-1(8),3,5,9,11-pentaene-4-carboxylic acid]
Second: CS(=O)(=O)NC(=O)c1cn2c(n1)sc1cc(OC(F)(F)F)ccc12 [Example 20, N-Methanesulfonyl-10-(trifluoromethoxy)-7-thia-2,5-diazatricyclo[6.4.0.0^2,6]dodeca-1(8),3,5,9,11-pentaene-4-carboxamide]
The IC50 of the first is 1.5-fold higher: 3410 nM for the first, 2210 nM for the second.

Compared with `CC(C)(C)c1ccc2c(c1)sc1nc(C(=O)O)cn12` [Example 206, 10-tert-Butyl-7-thia-2,5-diazatricyclo[6.4.0.0^2,6]dodeca-1(8),3,5,9,11-pentaene-4-carboxylic acid], `O=C(O)c1cn2c(n1)sc1cc(C(F)(F)F)ccc12` [Example 14, 10-(Trifluoromethyl)-7-thia-2,5-diazatricyclo[6.4.0.0^2,6]dodeca-1(8),3,5,9,11-pentaene-4-carboxylic acid] is 2.2-fold higher in IC50: 960 nM for the first, 2140 nM for the second. The first is the more potent here.

First: O=C(O)c1nc2sc3c(Cl)c(F)ccc3n2c1C1CC1 [Example 291, 9-Chloro-3-cyclopropyl-10-fluoro-7-thia-2,5-diazatricyclo[6.4.0.0^2,6]dodeca-1(8),3,5,9,11-pentaene-4-carboxylic acid]
Second: CS(=O)(=O)Nc1c(C(=O)O)nc2sc3c(Cl)c(F)ccc3n12 [Example 232, 9-Chloro-10-fluoro-3-methanesulfonamido-7-thia-2,5-diazatricyclo[6.4.0.0^2,6]dodeca-1(8),3,5,9,11-pentaene-4-carboxylic acid]
The IC50 of the first is 2-fold lower: 100 nM for the first, 200 nM for the second.

Compared with `O=C(O)C(O)c1cn2c(n1)sc1c(Cl)c(Cl)ccc12` (stereo not drawn) [Example 188, 2-{9,10-Dichloro-7-thia-2,5-diazatricyclo[6.4.0.0^2,6]dodeca-1(8),3,5,9,11-pentaen-4-yl}-2-hydroxyacetic acid], `O=C(O)Cc1cn2c(n1)sc1c(Cl)c(Cl)ccc12` [Example 19, 2-{9,10-Dichloro-7-thia-2,5-diazatricyclo[6.4.0.0^2,6]dodeca-1(8),3,5,9,11-pentaen-4-yl}acetic acid] is 3-fold lower in IC50: 2190 nM for the first, 720 nM for the second.

Compared with `COCCN1CCN(Cc2c(C(=O)O)nc3sc4c(n23)CCC(C(C)(C)C)C4)CC1` (stereo not drawn) [Example 272, 10-tert-Butyl-3-{[4-(2-methoxyethyl)piperazin-1-yl]methyl}-7-thia-2,5-diazatricyclo[6.4.0.0^2,6]dodeca-1(8),3,5-triene-4-carboxylic acid], `CC(C)(C)C1CCc2c(sc3nc(C(=O)O)c(NS(C)(=O)=O)n23)C1` (stereo not drawn) [Example 196, 10-tert-Butyl-3-methanesulfonamido-7-thia-2,5-diazatricyclo[6.4.0.0^2,6]dodeca-1(8),3,5-triene-4-carboxylic acid] is 3.6-fold lower in IC50: 1770 nM for the first, 490 nM for the second. The second is the more potent here.

First: O=C(O)c1cn2c(n1)sc1cc(OCc3ccccc3)ccc12 [Example 208, 10-(Benzyloxy)-7-thia-2,5-diazatricyclo[6.4.0.0^2,6]dodeca-1(8),3,5,9,11-pentaene-4-carboxylic acid]
Second: O=C(O)c1cn2c(n1)sc1c(Cl)c(Br)ccc12 [Example 243, 10-Bromo-9-chloro-7-thia-2,5-diazatricyclo[6.4.0.0^2,6]dodeca-1(8),3,5,9,11-pentaene-4-carboxylic acid]
The IC50 of the first is 11-fold higher: 2260 nM for the first, 210 nM for the second. The second is the more potent here.

Compared with `CS(=O)(=O)NC(=O)Cc1cn2c(n1)sc1c(Cl)c(Cl)ccc12` [Example 30, 2-{9,10-Dichloro-7-thia-2,5-diazatricyclo[6.4.0.0^2,6]dodeca-1(8),3,5,9,11-pentaen-4-yl}-N-methanesulfonylacetamide], `COC(=O)CCS(=O)(=O)NC(=O)c1cn2c(n1)sc1c(Cl)c(Cl)ccc12` [Example 27, Methyl 3-[({9,10-dichloro-7-thia-2,5-diazatricyclo[6.4.0.0^2 6]dodeca-1(8),3,5,9,11-pentaen-4-yl}formamido)sulfonyl]propanoate] is 42-fold lower in IC50: 2910 nM for the first, 70 nM for the second.

First: O=C(NS(=O)(=O)c1ccccc1)C1CN2C(=N1)Sc1c2ccc(F)c1Cl (stereo not drawn) [Example 278, N-(Benzenesulfonyl)-9-chloro-10-fluoro-7-thia-2,5-diazatricyclo[6.4.0.0^2,6]dodeca-1(8),5,9,11-tetraene-4-carboxamide]
Second: O=C(O)C1CN2C(=N1)Sc1c2ccc(F)c1Cl (stereo not drawn) [Example 228, 9-Chloro-10-fluoro-7-thia-2,5-diazatricyclo[6.4.0.0^2,6]dodeca-1(8),5,9,11-tetraene-4-carboxylic acid]
The IC50 of the first is 1.5-fold lower: 170 nM for the first, 260 nM for the second.

`CC1(C(=O)O)CN2C(=N1)Sc1c2ccc(F)c1Cl` (stereo not drawn) [Example 250, 9-Chloro-10-fluoro-4-methyl-7-thia-2,5-diazatricyclo[6.4.0.0^2,6]dodeca-1(8),5,9,11-tetraene-4-carboxylic acid] and `O=C(O)c1cn2c(n1)sc1c(F)c(Cl)c(OCCN3CCOCC3)cc12` [Example 289, 10-Chloro-9-fluoro-11-[2-(morpholin-4-yl)ethoxy]-7-thia-2,5-diazatricyclo[6.4.0.0^2,6]dodeca-1(8),3,5,9,11-pentaene-4-carboxylic acid] are within 1.5-fold of each other in IC50: 670 nM for the first, 820 nM for the second.

In the case of `CCN(CC)CCCS(=O)(=O)NC(=O)c1cn2c(n1)sc1c(Cl)c(Cl)ccc12` [Example 29, 9,10-Dichloro-N-[3-(diethylamino)propanesulfonyl]-7-thia-2,5-diazatricyclo[6.4.0.0^2,6]dodeca-1(8),3,5,9,11-pentaene-4-carboxamide], the IC50 is reported as 460 nM.
